For data set [1], the target named is T1, cJun/TRE DNA interaction (Homo sapiens, UniProt P05412, S292Y).
T1 construct: The same 60 amino acid c-Jun bZIP construct was used for all experiments; His-SUMO (N, cleaved yes); made in house; host or cells: E. coli
The data set is described as follows: CD cJun/TRE DNA antagonism (shift of TRE DNA peak at ~281 nm, Hill fit). The data set is classed as biochemical. An excerpt: Briefly, in TBS the coding region for the essential gene dihydrofolate reductase (DHFR) is mutated to incorporate TRE sites so that introduction of c-Jun to this gene inside E. coli produces a transcriptional block that abrogates cell proliferation. The TRE site-bound c-Jun molecules sterically prevent RNA polymerase transcribing the essential gene and this can only be restored upon introduction of an effective c-Jun/TRE antagonist. Consequently, the survival of a particular cell is controlled by the ability of a peptide library member to remove the c-Jun transcriptional block and therefore to restore DHFR activity. TBS thus facilitates the identification of therapeutically valuable sequences. Further details for the TBS assay are provided in WO2020128015, which is incorporated herein by reference in its entirety. […] The TRE-DNA construct produces a positive CD peak at ˜281 nm, which decreases in intensity upon c-Jun binding. […] This method allows for the calculation of an IC50 value by fitting the titration data to a Hill equation. In some embodiments, the c-Jun antagonist is able to inhibit the DNA-binding activity of c-Jun within 10-fold of the ability of HingeW to inhibit the DNA-binding activity of c-Jun (e.g. the c-Jun antagonist has a reduced ability to inhibit the DNA-binding activity of c-Jun that is within 10-fold of that determined for HingeW). In some embodiments, the c-Jun antagonist is able to inhibit the DNA-binding activity of c-Jun within 9-fold, preferably within 8-fold, more preferably within 7-fold, even more preferably within 6-fold, yet more preferably within 5-fold of the ability of HingeW to inhibit the DNA-binding activity of c-Jun. The ability of the c-Jun antagonist and HingeW to inhibit the DNA-binding activity may be measured using the TBS assay (e.g. by quantifying the number of colonies) or by determining the IC50 using a circular dichroism assay described herein. Optionally, the c-Jun antagonist may have this activity when cross-linked. Methods for cross-linking peptides are described in more detail below.
Therefore, the acidic domain was the initial focus for optimisation. 1 was iteratively truncated (2-6) to investigate the effect on c-Jun binding and c-Jun/TRE DNA antagonism. […] Thermal denaturation experiments were then used to determine the Tm of peptide-c-Jun heterodimers, which was used as an approximate measure of target engagement. CD was also used to investigate the ability of the functional activity of peptides in antagonising the c-Jun/TRE DNA interaction. The TRE-DNA construct used produces a positive CD peak at ˜281 nm (no c-Jun absorbance at this wavelength allows for direct measurement of DNA upon binding) which decreases in intensity upon c-Jun binding. […] This allowed for the calculation of an IC50 value by fitting the titration data to a Hill equation. […] The same 60 amino acid c-Jun bZIP construct was used for all experiments, regardless of antagonist peptide length.

Data set [2] addresses cJun (Homo sapiens, UniProt P05412, S292Y). Put plainly: Isothermal titration calorimetry, Example 2 (PEAQ-ITC). It counts as binding. Details: The same 60 amino acid c-Jun bZIP construct was used for all experiments; His-SUMO (N, cleaved yes); made in house; host or cells: E. coli. Conditions: for ΔG / ΔH / −TΔS / Stoichiometry, n: ITC; for Stoichiometry, n: c-Jun-peptide interaction. As to the method:
2 μL injections of antagonist peptide at 25-200 μM were injected into the cell containing cJun at 2.5-20 μM. Software was used to record and analyse the heat change upon addition. Control experiments involved the injection of the antagonist peptide sample into the cell containing ITC buffer alone to determine the heat of dilution which was subtracted. The resulting binding data were fit to a one site binding model to extract the enthalpy change of binding (ΔH) and the equilibrium binding constant (KD), from which the free energy change of binding (ΔG) and the entropy change of binding (ΔS) was calculated (Wiseman et al., 1989). Thermodynamic parameters are presented as an average of two independent experiments with errors given as one standard deviation.
(Isothermal titration calorimetry measures the heat released or taken up as one component is titrated into another.)

Data set [3] in a line: CD spectra and thermal denaturation of peptide-only samples (helicity, homodimer Tm).
Data set [4] concerns the target cJun bZIP (Homo sapiens, UniProt P05412, S292Y). The data set is described as follows: CD spectra and thermal denaturation of peptide/cJun heterodimers. Conditions: for Tm (° C.): peptide (5 μM)/c-Jun (5 μM) heterodimer, Table 6.
Data set [5] in a line: Serum stability (LC-MS). The data set is classed as in vitro ADME. Conditions: human serum; for remaining at 96 h, 30 μM / metabolised at 24 h, 30 μM: 37° C.; for remaining at 96 h, 30 μM: after 96 hours, read-out: peak intensities relative to starting values; for metabolised at 24 h, 30 μM: read-out: degraded. As for the experimental part: Serum Stability: Peptide stocks (600 μM) were prepared in water and 50 μL added to 950 μL human serum (Merck) before incubation at 37° C. […] The supernatant was analysed by LC-MS and quantified using the sum of the two largest charge state intensities (1: 9+, 10+; 23,24: 3+, 4+).

Data set [6] concerns the target T2, cJun bZIP (human, UniProt P05412 252-308, limits assumed).
T2 construct: Purified from a His-SUMO fusion with the tag cleaved off; also called c-Jun bZIP domain; 60 amino acid c-Jun bZIP construct
T2 chain: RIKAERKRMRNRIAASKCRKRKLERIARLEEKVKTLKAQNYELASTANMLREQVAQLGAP
The data set is described as follows: CD thermal denaturation, peptide 5 µM and c-Jun 5 µM.

For data set [7], the target named is T2, cJun bZIP. The data set is described as follows: cell-based or functional assay.
Data set [8] deals with T2, cJun bZIP. The data set is described as follows: CD thermal denaturation.

Bridge positions count the residues as written; N and C are the ends. Peptide text beside a SMILES is read from it.

Consider `CC[C@H](C)[C@H](NC(=O)[C@H](CCC(=O)O)NC(=O)[C@H](CCCCN)NC(=O)[C@H](CCCNC(=N)N)NC(=O)[C@H](CC(C)C)NC(=O)[C@H](C)NC(=O)[C@H](Cc1ccc(O)cc1)NC(=O)[C@H](CC(N)=O)NC(=O)[C@H](CCCNC(=N)N)NC(=O)[C@H](CCC(=O)O)NC(=O)[C@H](CCC(=O)O)NC(=O)[C@H](CC(C)C)NC(=O)[C@H](CCC(N)=O)NC(=O)[C@H](CCC(=O)O)NC(=O)[C@@H](NC(=O)[C@H](CCC(=O)O)NC(=O)[C@@H]1CC(=O)NCCCC[C@H](NC(=O)[C@H](CCC(=O)O)NC(=O)[C@H](CCC(=O)O)NC(=O)[C@@H](NC(=O)[C@@H](NC(=O)[C@H](CC(C)C)NC(=O)[C@H](CCC(=O)O)NC(=O)[C@H](CCC(=O)O)NC(=O)[C@H](C)NC(=O)[C@H](CCC(=O)O)NC(C)=O)C(C)C)C(C)C)C(=O)N[C@@H](C(C)C)C(=O)N[C@@H](CC(C)C)C(=O)N[C@@H](CCC(=O)O)C(=O)N1)[C@@H](C)CC)C(=O)N[C@H]1CCCCNC(=O)C[C@@H](C(=O)N[C@@H](CCC(N)=O)C(N)=O)NC(=O)[C@H](CCC(N)=O)NC(=O)[C@H](CC(C)C)NC(=O)[C@H](CC(=O)O)NC1=O` [Peptide 24] (Ac-EAEELVVEEKVLEDEIEQLEERNYALRKEIKDLQDQ-NH2; lactam 10-14, 31-35 (inferred)), for which, in data set [1] (P=0.02), the “change in IC50 compared to the best single lactamised peptide” value is on record as “significant decrease in IC50 value”. Further, in data set [2], the “ΔG” value was -45.81 ± 1.01 kJ/mol; the “ΔH” value was -127.82 ± 2.61 kJ/mol; the “−TΔS” value was found to be 82.01 ± 2.80 kJ/mol; the “Stoichiometry, n” value is 1.05 ± 0.01. Besides, in data set [3], the “increase in peptide helicity from 1” value is reported as 20% and the “more helical compared to the best single lactamised peptide” value is given as around 4%. Further, in data set [4], the “change in heterodimer Tm compared to the best single lactamised peptide” value is on record as “no significant change in heterodimer Tm” and the “Tm (° C.)” value turned out to be 63.2 ± 1.3 °C. For the same molecule, in data set [5], the remaining at 96 h, 30 μM came to 35% and the metabolised at 24 h, 30 μM worked out at 7%. In addition, the “serum stability” value in data set [5] (LC-MS) is “highest stability”.
As for `CC[C@H](C)[C@H](NC(=O)[C@H](CCC(=O)O)NC(=O)[C@H](CCCCN)NC(=O)[C@H](CCCNC(=N)N)NC(=O)[C@H](CC(C)C)NC(=O)[C@H](C)NC(=O)[C@H](Cc1ccc(O)cc1)NC(=O)[C@H](CC(N)=O)NC(=O)[C@H](CCCNC(=N)N)NC(=O)[C@H](CCC(=O)O)NC(=O)[C@H](CCC(=O)O)NC(=O)[C@H](CC(C)C)NC(=O)[C@H](CCC(N)=O)NC(=O)[C@H](CCC(=O)O)NC(=O)[C@@H](NC(=O)[C@H](CCC(=O)O)NC(=O)[C@H](CCC(=O)O)NC(=O)[C@H](CCC(=O)O)NC(=O)[C@H](CC(C)C)NC(=O)[C@@H](NC(=O)[C@H](CC(=O)O)NC(=O)[C@H](CCC(=O)O)NC(=O)[C@H](CCC(=O)O)NC(=O)[C@@H](NC(=O)[C@@H](NC(=O)[C@H](CC(C)C)NC(=O)[C@H](CCC(=O)O)NC(=O)[C@H](CCC(=O)O)NC(=O)[C@H](C)NC(=O)[C@H](CCC(=O)O)NC(C)=O)C(C)C)C(C)C)C(C)C)[C@@H](C)CC)C(=O)N[C@H]1CCCCNC(=O)C[C@@H](C(=O)N[C@@H](CCC(N)=O)C(N)=O)NC(=O)[C@H](CCC(N)=O)NC(=O)[C@H](CC(C)C)NC(=O)[C@H](CC(=O)O)NC1=O` [Peptide 23] (Ac-EAEELVVEEDVLEEEIEQLEERNYALRKEIKDLQDQ-NH2; lactam 31-35 (inferred)), the “fold lower IC50 than 11” value in data set [1] (P=0.003) worked out at 1.6 fold. Further, in data set [2], binding was characterised by a dissociation constant (Kd) of 0.0866 ± 0.017 µM, the “ΔG” value is -40.42 ± 0.49 kJ/mol, the “ΔH” value is -98.74 ± 2.54 kJ/mol and the “−TΔS” value amounted to 58.37 ± 2.59 kJ/mol. In addition, the “Stoichiometry, n” value in data set [2] was found to be 0.97 ± 0.02. Further, the “change in fraction helicity from lactamisation” value in data set [3] (cyclised vs its linear form) is reported as around 8%. In addition, in data set [4], the “heterodimer ΔTm compared to parent sequence 11” value was around 8 °C and the “Tm (° C.)” value came to 65.0 ± 1.4 °C. For the same molecule, in data set [4] (cyclised vs its linear form), the “heterodimer ΔTm from lactamisation” value is around 9 °C. Moreover, in data set [5], the remaining at 96 h, 30 μM came out at 17% and the metabolised at 24 h, 30 μM is 21%.

B1: HingeW variant peptide 13 (peptide)
peptide: Ac-KEAEDLVVEEDVLEEEIEQLEERNYALRKEIKDLQDQ-NH2
modifications: lactam (positions not given here); also: one i to i+4 K-D lactam bridge, pair not given here
notes: Synthetic, NΔ19 CΔ7; also called cyclised form of 12/13
As to B1, in data set [6], the “Tm (° C.) of peptide-c-Jun heterodimer” value is 58.5 ° C. Further, in data set [7], the “IC50 CD” value stood at 92.5 µM. The “heterodimer ΔTm against parent sequence 11” value in data set [8] is around 1 ° C.

B2: HingeW variant peptide 15 (peptide)
peptide: Ac-EAKELVDEEDVLEEEIEQLEERNYALRKEIEDLQKQ-NH2
modifications: lactam 3-7
notes: Synthetic, NΔ20 CΔ7; also called cyclised form of 14/15
B2: the “Tm (° C.) of peptide-c-Jun heterodimer” value in data set [6] is 59.4 ° C. In addition, the “IC50 CD” value in data set [7] came to 81.1 µM. Also, the “heterodimer ΔTm from lactamisation (15 against linear 14)” value in data set [8] was around 2 ° C.
